Source: PubChem BioAssay AID1259407 (Chemical Carcinogenesis Research Information System (CCRIS), 2018)
Activity calls are given as the source filed them. The rule behind the calls is not given here.

System: CCRIS mutagenicity, Ames/micronucleus/aberration tests
Assay: CCRIS mutagenicity studies

`CC(=O)Oc1ccccc1C(=O)O` was tested, and the mutagenic call (End Point: IN VITRO MICRONUCLEUS, Test System: CHL/IU CELLS, Metabolic Activation: NONE) was “active; positive”, the mutagenic call (End Point: IN VITRO MICRONUCLEUS, Test System: RAT KIDNEY FIBROBLAST NRK-49F, Metabolic Activation: NONE) was “inactive; negative” and the mutagenic call (Test System: AMES SALMONELLA TYPHIMURIUM, Strain/Indicator: TA97, Metabolic Activation: HAMSTER, LIVER, S-9, AROCLOR 1254 (10%), Method: PREINCUBATION) was “inactive; negative”. For the same compound, the mutagenic call (Test System: AMES SALMONELLA TYPHIMURIUM, Strain/Indicator: TA97, Metabolic Activation: HAMSTER, LIVER, S-9, AROCLOR 1254 (30%), Method: PREINCUBATION) was “inactive; negative”, the mutagenic call (Test System: AMES SALMONELLA TYPHIMURIUM, Strain/Indicator: TA97, Metabolic Activation: NONE, Method: PREINCUBATION) was “inactive; negative” and the mutagenic call (Test System: AMES SALMONELLA TYPHIMURIUM, Strain/Indicator: TA97, Metabolic Activation: RAT, LIVER, S-9, AROCLOR 1254 (10%), Method: PREINCUBATION) was “inactive; negative”. For the same compound, the mutagenic call (Test System: AMES SALMONELLA TYPHIMURIUM, Strain/Indicator: TA97, Metabolic Activation: RAT, LIVER, S-9, AROCLOR 1254 (30%), Method: PREINCUBATION) was “inactive; negative”, the mutagenic call (Test System: AMES SALMONELLA TYPHIMURIUM, Strain/Indicator: TA98, Metabolic Activation: GUINEA PIG, LIVER, S-9, PCB, Method: PREINCUBATION) was “inactive; negative” and the mutagenic call (Test System: AMES SALMONELLA TYPHIMURIUM, Strain/Indicator: TA98, Metabolic Activation: HAMSTER, LIVER, S-9, AROCLOR 1254 (10%), Method: PREINCUBATION) was “inactive; negative”. The mutagenic call (Test System: AMES SALMONELLA TYPHIMURIUM, Strain/Indicator: TA98, Metabolic Activation: HAMSTER, LIVER, S-9, AROCLOR 1254 (30%), Method: PREINCUBATION) was “inactive; negative”, the mutagenic call (Test System: AMES SALMONELLA TYPHIMURIUM, Strain/Indicator: TA98, Metabolic Activation: HAMSTER, LIVER, S-9, AROCLOR 1254, Method: STANDARD PLATE) was “inactive; negative” and the mutagenic call (Test System: AMES SALMONELLA TYPHIMURIUM, Strain/Indicator: TA98, Metabolic Activation: HAMSTER, LIVER, S-9, PCB, Method: PREINCUBATION) was “inactive; negative”. The mutagenic call (Test System: AMES SALMONELLA TYPHIMURIUM, Strain/Indicator: TA98, Metabolic Activation: MOUSE, LIVER, S-9, AROCLOR 1254, Method: STANDARD PLATE) was “inactive; negative”, the mutagenic call (Test System: AMES SALMONELLA TYPHIMURIUM, Strain/Indicator: TA98, Metabolic Activation: MOUSE, LIVER, S-9, PCB, Method: PREINCUBATION) was “inactive; negative” and the mutagenic call (Test System: AMES SALMONELLA TYPHIMURIUM, Strain/Indicator: TA98, Metabolic Activation: NONE, Method: PREINCUBATION) was “inactive; negative”. The mutagenic call (Test System: AMES SALMONELLA TYPHIMURIUM, Strain/Indicator: TA98, Metabolic Activation: NONE, Method: STANDARD PLATE) was “inactive; negative”, the mutagenic call (Test System: AMES SALMONELLA TYPHIMURIUM, Strain/Indicator: TA98, Metabolic Activation: RAT, LIVER, S-9, AROCLOR 1254 (10%), Method: PREINCUBATION) was “inactive; negative” and the mutagenic call (Test System: AMES SALMONELLA TYPHIMURIUM, Strain/Indicator: TA98, Metabolic Activation: RAT, LIVER, S-9, AROCLOR 1254 (30%), Method: PREINCUBATION) was “inactive; negative”. For the same compound, the mutagenic call (Test System: AMES SALMONELLA TYPHIMURIUM, Strain/Indicator: TA98, Metabolic Activation: RAT, LIVER, S-9, AROCLOR 1254, Method: STANDARD PLATE) was “inactive; negative”, the mutagenic call (Test System: AMES SALMONELLA TYPHIMURIUM, Strain/Indicator: TA98, Metabolic Activation: RAT, LIVER, S-9, PCB, Method: PREINCUBATION) was “inactive; negative” and the mutagenic call (Test System: AMES SALMONELLA TYPHIMURIUM, Strain/Indicator: TA98, Metabolic Activation: RAT, LIVER, S-9, PCB, Method: STANDARD PLATE) was “inactive; negative”. The mutagenic call (Test System: AMES SALMONELLA TYPHIMURIUM, Strain/Indicator: TA100, Metabolic Activation: GUINEA PIG, LIVER, S-9, PCB, Method: PREINCUBATION) was “inactive; negative”, the mutagenic call (Test System: AMES SALMONELLA TYPHIMURIUM, Strain/Indicator: TA100, Metabolic Activation: HAMSTER, LIVER, S-9, AROCLOR 1254 (10%), Method: PREINCUBATION) was “inactive; negative” and the mutagenic call (Test System: AMES SALMONELLA TYPHIMURIUM, Strain/Indicator: TA100, Metabolic Activation: HAMSTER, LIVER, S-9, AROCLOR 1254 (30%), Method: PREINCUBATION) was “inactive; negative”. The mutagenic call (Test System: AMES SALMONELLA TYPHIMURIUM, Strain/Indicator: TA100, Metabolic Activation: HAMSTER, LIVER, S-9, AROCLOR 1254, Method: STANDARD PLATE) was “inactive; negative”, the mutagenic call (Test System: AMES SALMONELLA TYPHIMURIUM, Strain/Indicator: TA100, Metabolic Activation: HAMSTER, LIVER, S-9, PCB, Method: PREINCUBATION) was “inactive; negative” and the mutagenic call (Test System: AMES SALMONELLA TYPHIMURIUM, Strain/Indicator: TA100, Metabolic Activation: MOUSE, LIVER, S-9, AROCLOR 1254, Method: STANDARD PLATE) was “inactive; negative”. For the same compound, the mutagenic call (Test System: AMES SALMONELLA TYPHIMURIUM, Strain/Indicator: TA100, Metabolic Activation: MOUSE, LIVER, S-9, PCB, Method: PREINCUBATION) was “inactive; negative”, the mutagenic call (Test System: AMES SALMONELLA TYPHIMURIUM, Strain/Indicator: TA100, Metabolic Activation: NONE, Method: PREINCUBATION) was “inactive; negative” and the mutagenic call (Test System: AMES SALMONELLA TYPHIMURIUM, Strain/Indicator: TA100, Metabolic Activation: NONE, Method: STANDARD PLATE) was “inactive; negative”. For the same compound, the mutagenic call (Test System: AMES SALMONELLA TYPHIMURIUM, Strain/Indicator: TA100, Metabolic Activation: RAT, LIVER, S-9, AROCLOR 1254 (10%), Method: PREINCUBATION) was “inactive; negative”.
